From ChEMBL document CHEMBL5260795, “Antifungal potential of marine natural products” (Eur J Med Chem, 2017)
Values after ≈ are worked out from the molar mass of the structure shown. Each block holds one compound with its values, some of them ahead of it. Where a SMILES comes first, the peptide text is derived from it. [ ]: non-standard residue; d: D form. The star is where a group is joined. Tridecanoyl(3R-OH,11-Me) = CCC(C)CCCCCCC[C@@H](O)CC(=O)*; X1 = CCC(C)CC(C)CCCCC[C@@H](O)CC(=O)*; X2 = CCC(C)CC(C)CCCC[C@@H](O)CC(=O)*; X3 = CCC(C)CCCCCCCC[C@@H](O)CC(=O)*

How the values were obtained:
Botrytis cinerea [1] = experiment: Antimicrobial activity against Botrytis cinerea incubated for 72 hrs by standard broth dilution method; assay type: functional
Aspergillus niger [2] = experiment: Antimicrobial activity against Aspergillus niger incubated for 72 hrs by standard broth dilution method; assay type: functional
Saccharomyces cerevisiae = experiment: Antimicrobial activity against Saccharomyces cerevisiae incubated for 72 hrs by standard broth dilution method; assay type: functional
Candida albicans [3] = experiment: Antimicrobial activity against Candida albicans incubated for 72 hrs by standard broth dilution method; assay type: functional
Rhizoctonia solani [4] = experiment: Antimicrobial activity against Rhizoctonia solani incubated for 72 hrs by standard broth dilution method; assay type: functional
Colletotrichum acutatum [5] = experiment: Antimicrobial activity against Colletotrichum acutatum incubated for 72 hrs by standard broth dilution method; assay type: functional
Candida albicans [6] = experiment: Antifungal activity against wild type Candida albicans; assay type: functional, organism-based
Candida albicans [7] = experiment: Antifungal activity against Candida albicans; assay type: functional, organism-based
Aspergillus niger [8] = experiment: Antifungal activity against Aspergillus niger; assay type: functional
[9] = system: Colletotrichum gloeosporioides; experiment: Antifungal activity against Colletotrichum gloeosporioides; assay type: functional
Gaeumannomyces graminis = experiment: Antimicrobial activity against Gaeumannomyces graminis; assay type: functional
Colletotrichum acutatum [10] = experiment: Antifungal activity against Colletotrichum acutatum incubated for 48 hrs by standard broth dilution method; assay type: functional
Phytophthora capsici = experiment: Antifungal activity against Phytophthora capsici incubated for 48 hrs by standard broth dilution method; assay type: functional
Botrytis cinerea [11] = experiment: Antifungal activity against Botrytis cinerea incubated for 48 hrs by standard broth dilution method; assay type: functional
Rhizoctonia solani [12] = experiment: Antifungal activity against Rhizoctonia solani incubated for 48 hrs by standard broth dilution method; assay type: functional
Rhizoctonia solani [13] = experiment: Antifungal activity against Rhizoctonia solani; assay type: functional
Botrytis cinerea [14] = experiment: Antifungal activity against Botrytis cinerea; assay type: functional

Structure (SMILES): CO[C@H]1/C=C/C=C/CCC[C@@H](C)OC(=O)/C=C\C=C\C[C@H](O[C@@H]2O[C@@H](CO)[C@@H](O)[C@H](O)[C@H]2O)/C=C/C=C\C[C@H](O)C1
MIC (Botrytis cinerea [1]): 0.02 µg/mL (≈ 0.0346 µM) | MIC (Aspergillus niger [2]): 0.02 µg/mL (≈ 0.0346 µM) | MIC (Saccharomyces cerevisiae): 0.02 µg/mL (≈ 0.0346 µM) | MIC (Candida albicans [3]): 0.02 µg/mL (≈ 0.0346 µM) | MIC (Rhizoctonia solani [4]): 0.02 µg/mL (≈ 0.0346 µM) | MIC (Colletotrichum acutatum [5]): 0.02 µg/mL (≈ 0.0346 µM)

Structure (SMILES): C[C@@H]1CCCCC/C=C/[C@H](O)C[C@@H](O)C/C=C\C=C\[C@@H](O[C@@H]2O[C@@H](CO)[C@H](O)[C@@H](O)[C@@H]2O)C/C=C/C=C\C(=O)O1
MIC (Botrytis cinerea [1]): 0.02 µg/mL (≈ 0.0353 µM) | MIC (Aspergillus niger [2]): 0.02 µg/mL (≈ 0.0353 µM) | MIC (Saccharomyces cerevisiae): 0.02 µg/mL (≈ 0.0353 µM) | MIC (Candida albicans [3]): 0.02 µg/mL (≈ 0.0353 µM) | MIC (Rhizoctonia solani [4]): 0.02 µg/mL (≈ 0.0353 µM) | MIC (Colletotrichum acutatum [5]): 0.02 µg/mL (≈ 0.0353 µM)

MIC (Candida albicans [6]): 1.95 µg/mL (≈ 2.62 µM)
Structure (SMILES): C/C(Cl)=C/C=C/C=C/C=C/C=C/C(O)=C1\C(=O)C(CC(N)=O)N([C@@H]2OC[C@@H](O)[C@H](O)[C@H]2O[C@H]2OC[C@H](O[C@H]3O[C@@H](C)[C@H](O)[C@@H]3O)[C@H](O)[C@H]2O)C1=O (some centres not stated)

IC50 (Candida albicans [7]): 4.14 µg/mL (≈ 1.99 µM)
Structure (SMILES): CCC/C=C\c1ccccc1/C=C/C(=O)N[C@H]1C(=O)N(C)/C(=C/c2ccc(O)cc2)C(=O)N[C@@H](CC(C)C)C(=O)N[C@H](Cc2ccccc2)C(=O)N[C@@H]([C@H](C)O)C(=O)N[C@@H](CC(N)=O)C(=O)N[C@@H](CO)C(=O)O[C@H](C)[C@@H](NC(=O)C/C=C2/C=CNC[C@H]2/C=C\CCC)C(=O)N(C)/C(=C/c2ccc(O)cc2)C(=O)N[C@@H](CC(C)C)C(=O)N[C@H](Cc2ccccc2)C(=O)N[C@@H]([C@H](C)O)C(=O)N[C@@H](CC(N)=O)C(=O)N[C@@H](CO)C(=O)O[C@@H]1C

MIC (Aspergillus niger [8]): 1 µg/mL (≈ 4.92 µM)
Structure (SMILES): Cc1ccc(CC2CCC(=O)N2)c(C)c1 (configuration not stated)

MIC (Candida albicans [7]): 0.1 µg/mL (≈ 0.0664 µM)
Structure (SMILES): C/C=C(\NC(=O)[C@@H](NC(=O)[C@H](O)[C@H](O)[C@H](CCCNC(=N)N)NC(=O)[C@@H](C)NC(=O)[C@H](C)[C@H](O)[C@H](C)CC(C)C)[C@@H](C)[C@@H](C)C(N)=O)C(=O)N[C@@H](C(=O)N[C@H](CCCNC(=N)N)C(=O)N[C@@H](CC(C)C)C(=O)N(C)[C@@H](CCC(N)=O)C(=O)N[C@@H](C(=O)N(C)[C@@H](C)C(=O)O)[C@H](OC)c1ccc(O)cc1)[C@@H](C)O

MIC (Candida albicans [7]): 1.56 µg/mL (≈ 3.29 µM)
Structure (SMILES): CC(C)[C@@H](C)[C@@H]1O[C@@H]1[C@@H](C)[C@H]1[C@@H](O)C[C@]2(O)C3=CC=C4C[C@@H](O)CC[C@]4(C)C3[C@H](O)C(=O)[C@]12C (some centres not stated)

MIC [9]: 1 µg/mL (≈ 4.23 µM)
Structure (SMILES): CC1=CC[C@]23C[C@H]1C[C@@](C)(O)[C@H]2[C@H](O)C[C@@H]3C

MIC (Gaeumannomyces graminis): 0.25 µg/mL (≈ 0.55 µM)
Structure (SMILES): CS[C@@]12C[C@@H]3C(=O)CC[C@H](O)[C@@H]3N1C(=O)[C@]1(SC)C[C@H]3C(=O)CC[C@@H](O)[C@@H]3N1C2=O

MIC (Candida albicans [7]): 0.1 µg/mL (≈ 0.101 µM)
Structure (SMILES): CC(C)C[C@@H](C)[C@@H](O)[C@@H](C)C(=O)N[C@H](C)C(=O)N[C@@H](CCCNC(=N)N)[C@@H](O)[C@@H](O)C(=O)N[C@H](C(=O)N[C@@H](C(=O)N[C@@H](C(=O)N[C@H](CCCNC(=N)N)C(=O)O)[C@@H](C)O)[C@@H](C)O)[C@@H](C)[C@@H](C)C(N)=O

MIC (Botrytis cinerea [1]): 0.02 µg/mL (≈ 0.0354 µM) | MIC (Aspergillus niger [2]): 0.02 µg/mL (≈ 0.0354 µM) | MIC (Saccharomyces cerevisiae): 0.02 µg/mL (≈ 0.0354 µM) | MIC (Candida albicans [3]): 0.02 µg/mL (≈ 0.0354 µM) | MIC (Rhizoctonia solani [4]): 0.02 µg/mL (≈ 0.0354 µM) | MIC (Colletotrichum acutatum [5]): 0.02 µg/mL (≈ 0.0354 µM)
Structure (SMILES): C[C@@H]1CCC/C=C/C=C/[C@H](O)C[C@@H](O)C/C=C\C=C\[C@@H](O[C@@H]2O[C@@H](CO)[C@H](O)[C@@H](O)[C@@H]2O)C/C=C/C=C\C(=O)O1

MIC [9]: 0.125 µg/mL (≈ 0.449 µM)
Structure (SMILES): CC(=O)O[C@@H]1C[C@H](C)[C@@]23CC=C(C)[C@@H](C2)C[C@@](C)(O)[C@@H]13

MIC (Colletotrichum acutatum [10]): 0.01 µg/mL (≈ 0.0138 µM) | MIC (Phytophthora capsici): 0.01 µg/mL (≈ 0.0138 µM) | MIC (Botrytis cinerea [11]): 0.01 µg/mL (≈ 0.0138 µM) | MIC (Rhizoctonia solani [12]): 0.01 µg/mL (≈ 0.0138 µM)
Structure (SMILES): CCC(C)CC(C)CCCCC[C@@H](O)CC(=O)N[C@@H](CC(C)C)C(=O)N[C@@H](CCC(=O)O)C(=O)N[C@@H](CC(C)C)C(=O)N[C@@H](CC(C)C)C(=O)O (some centres not stated) (X1-LELL-OH)

MIC (Colletotrichum acutatum [10]): 0.01 µg/mL (≈ 0.014 µM) | MIC (Phytophthora capsici): 0.01 µg/mL (≈ 0.014 µM) | MIC (Botrytis cinerea [11]): 0.01 µg/mL (≈ 0.014 µM) | MIC (Rhizoctonia solani [12]): 0.01 µg/mL (≈ 0.014 µM)
Structure (SMILES): CCC(C)CC(C)CCCC[C@@H](O)CC(=O)N[C@@H](CC(C)C)C(=O)N[C@@H](CCC(=O)O)C(=O)N[C@@H](CC(C)C)C(=O)N[C@@H](CC(C)C)C(=O)O (some centres not stated) (X2-LELL-OH)

MIC (Colletotrichum acutatum [10]): 0.01 µg/mL (≈ 0.0135 µM) | MIC (Phytophthora capsici): 0.01 µg/mL (≈ 0.0135 µM) | MIC (Botrytis cinerea [11]): 0.01 µg/mL (≈ 0.0135 µM) | MIC (Rhizoctonia solani [12]): 0.01 µg/mL (≈ 0.0135 µM)
Structure (SMILES): CCC(C)CCCCCCCC[C@@H](O)CC(=O)N[C@@H](CCC(=O)OC)C(=O)N[C@@H](CC(C)C)C(=O)N[C@@H](CC(C)C)C(=O)N[C@@H](CC(C)C)C(=O)O (some centres not stated) (X3-E(OMe)LLL-OH)

MIC (Rhizoctonia solani [13]): 4 µg/mL (≈ 3.84 µM) | MIC (Botrytis cinerea [14]): 4 µg/mL (≈ 3.84 µM)
Structure (SMILES): CCC(C)CCCCCCC[C@@H](O)CC(=O)N[C@@H](CCC(=O)O)C(=O)N[C@@H](CC(C)C)C(=O)N[C@@H](CC(C)C)C(=O)N[C@@H](C(=O)N[C@@H](CC(=O)O)C(=O)N[C@@H](CC(C)C)C(=O)N[C@@H](CC(C)C)C(=O)O)C(C)C (stereo partly drawn) ({Tridecanoyl(3R-OH,11-Me)}-ELL[dV]DLL-OH)

MIC (Colletotrichum acutatum [10]): 0.01 µg/mL (≈ 0.014 µM) | MIC (Phytophthora capsici): 0.01 µg/mL (≈ 0.014 µM) | MIC (Botrytis cinerea [11]): 0.01 µg/mL (≈ 0.014 µM) | MIC (Rhizoctonia solani [12]): 0.01 µg/mL (≈ 0.014 µM)
Structure (SMILES): CCC(C)CCCCCCC[C@@H](O)CC(=O)N[C@@H](CC(C)C)C(=O)N[C@@H](CCC(=O)O)C(=O)N[C@@H](CC(C)C)C(=O)N[C@@H](CC(C)C)C(=O)O (stereo partly drawn) ({Tridecanoyl(3R-OH,11-Me)}-LELL-OH)

Structure (SMILES): C[C@@H]1CCC/C=C/C=C/[C@H](O)C[C@@H](O)C[C@@H]2O[C@@H]2/C=C/[C@@H](O)C/C=C/C=C\C(=O)O1 [GAGEOMACROLACTIN 1]
MIC (Botrytis cinerea [1]): 0.02 µg/mL (≈ 0.0478 µM) | MIC (Aspergillus niger [2]): 0.02 µg/mL (≈ 0.0478 µM) | MIC (Saccharomyces cerevisiae): 0.02 µg/mL (≈ 0.0478 µM) | MIC (Candida albicans [3]): 0.02 µg/mL (≈ 0.0478 µM) | MIC (Rhizoctonia solani [4]): 0.02 µg/mL (≈ 0.0478 µM) | MIC (Colletotrichum acutatum [5]): 0.02 µg/mL (≈ 0.0478 µM)

MIC (Botrytis cinerea [1]): 0.02 µg/mL (≈ 0.0497 µM) | MIC (Aspergillus niger [2]): 0.02 µg/mL (≈ 0.0497 µM) | MIC (Saccharomyces cerevisiae): 0.02 µg/mL (≈ 0.0497 µM) | MIC (Candida albicans [3]): 0.02 µg/mL (≈ 0.0497 µM) | MIC (Rhizoctonia solani [4]): 0.02 µg/mL (≈ 0.0497 µM) | MIC (Colletotrichum acutatum [5]): 0.02 µg/mL (≈ 0.0497 µM)
Structure (SMILES): C[C@@H]1CCC/C=C/CCC(=O)C[C@@H](O)C/C=C\C=C\[C@@H](O)C/C=C/C=C\C(=O)O1 [MACROLACTIN F]
